Assay results taken from patent publication US6458585B1, “Cytokine-free culture of dendritic cells” (Nexell Therapeutics Inc., priority 1996, dated 2002).

Columns and labels:
Type in all cases: cell-based, human
Bulk PBMNC = assay: Morphologically identified dendritic cells in bulk PBMNC cultures with non-cytokine additives
Description: (§1) Cytofunnels were attached to microscope slides. 50,000 to 100,000 cells were removed from each culture and resuspended in approximately 100 to 200 ul of PBS-CMF. Slides were placed in the Cytospin® centrifuge and spun at 100 rpm for 4 min. Cytofunnels were removed from the slides and the slides were air dried for 1 minute. Ten drops of Wright-Geimsa stain were placed onto each slide and allowed to fix for 1 to 2 minutes. Ten drops of water were added to each slide and allowed to sit for 2 to 4 minutes. The slides were rinsed and air dried.
(§2) Reading of Cytospin Slides: Slides were read under phase contrast microscopy, 40× and 60× oil magnification. One hundred cells were identified and characterized morphologically as either dendritic cells or non-dendritic cells (lymphocytes and monocyte, or CD34+-derived cells in those cases). Digital images were taken using a color monitor and color video printer.
Culture of Bulk PBMNC: PBMNC cells were cultured in X-VIVO 15™ supplemented with 2 mM L- glutamine. Cultures were initiated at 5×^05 cells/ml in PL2417 gas-permeable containers (20 ml). GM-CSF and IL-4 were added to the cultures at final concentrations of 50 ng/ml and 1000 U/ml or non-cytokine additives such as Vitamin D3 at 2.5 uM, Vitamin E at 0.1%, Linoleic Acid at 5 ug/ml, or Ca++ Ionophore at 10 mM. Addition and subtraction of cells, media, and growth factors to and from PL2417 gas-permeable containers was accomplished by spiking a Sampling Site Coupler into the sample port of the container followed by use of syringes and needles. Cells were cultured in a 5% CO2, ambient O2, 37° C. humidified incubator for 7 days.
(§3) Cytospin slide preparation, Wright-Geimsa and immunohistochemical staining of the cultured cells were conducted as described in Example 1 and 2 above. Mixed lymphocyte reactions (MLR's) were setup using T cells (responders) and dendritic cell enriched cultures (stimulators) from bulk PBMNC cultures, as described above in Example 1.

adherent PBMNC [1] = assay: Cell counts and viability of plastic adherent cells cultured with non-cytokine additives in polystyrene plates; design: % VIABLE: concentration or dose not given beside the values; details: for % VIABLE: propidium iodide
Description: Viability Determination: Prior to acquisition, 5 ul propidium iodide (PI) was added to each tube for use as a viability check. The cells were vortexed and acquired within 10 min of PI addition.
(§4) Enrichment and Culture of Adherent Cells Using Polystyrene Tissue Culture Plates: PBMNC were resuspended in culture media (X-VIVO 15™+10% autologous serum) at 2×10^6 cells/ml. Cells were placed into 48 well polystyrene tissue culture plates […] and incubated for 2 hours in a 5% CO2, ambient O2, 37° C. humidified incubator. Non-adherent cells were removed from the plates then wells were rinsed with X-VIVO 15™ containing no serum. Cells remaining in the wells were adherent cells. These cells were cultured by adding 2 ml of X-VIVO 15™ to each well plus GM-CSF and IL-4 at final concentrations of 50 ng/ml and 1000 U/ml or the following: cAMP at 0.5 mM, dibutyryl cAMP at 0.1 mM, NaF at 0.25 mM, theophylline at 0.5 mM, PGE at 0.1 mM, Vitamin D3 at 2.5 uM, Vitamin E at 0.1%, Retinoic Acid at 10^−6 M, PMA at 1 pM, Linoleic Acid at 5 ug/ml, or Ca^++ Ionophore at 10 mM. Furthermore, cells were also cultured with the above non-cytokine additives plus GM-CSF at 50 ng/ml. Cells were cultured in a 5% CO2, ambient O2, 37° C. humidified incubator for 7 days.
(§5) Results: In the set of experiments using plastic adherent cells grown in polystyrene tissue culture plates, a Day 0 analysis of the cells was not performed. However, these cultures were analyzed for the presence of DC on days 4 and 7. Analysis perfomed were cell counts, viability via propidium iodide, morphology under Wright-Geimsa staining, and immunohistochemical staining using an anti-S100 antibody.

adherent PBMNC [2] = assay: DC morphology (Wright-Geimsa) of plastic adherent cells cultured with non-cytokine additives
Description: as §1, §2, §4, §3, §5

T cells = assay: Allogeneic MLR with bulk PBMNC cultures grown with non-cytokine additives
Description: MLR's were setup using T cells as responders and dendritic cell enriched cultures as antigen presenters. Sheep red blood cells were prepared and used to erythrocyte rosette T cells from a MNC preparation as described in “Current Protocols in Immunology”, John Wiley & Sons Inc, 1995. Vol. 2, 7.2.1-7.2.4. Erythrocyte+(E+ ) T cells were resuspended to 1×10^6 cells/ml in RPMI 1640/10% FCS. Dendritic cells were resuspended to 1×10^6 cells/ml in RPMI 1640/10% FCS and mitomycin C was added at 25 ug/ml to inhibit proliferation. The tubes were incubated at 37° C. for 30 min. then washed 3 times with PBS-CMF/1% HA. […] […] The appropriate control wells were also prepared. Plates were incubated for 4 or 5 days at 37° C.
Each well was pulsed with 1 uCi of ^3H-thymidine in RPMI 1640/10% FCS. Plates were incubated overnight at 37° C.
Plates were harvested onto glass fiber filter strips using a cell harvester. Discs were placed into scintillation vials containing scintillation cocktail and samples were counted using a beta radiation counter.
as §3
The functional capacity of cultured cells to induce T cell proliferation was measured in an allogeneic MLR. […] At the greatest ratio of 1:100, the differences in capacity to induce T cell proliferation is marginal between the GM-CSF/IL-4 cultured cells and the non-cytofine additive cultured cells.

Structure (SMILES): CCCCC/C=C\C/C=C\CCCCCCCC(=O)O [Linoleic Acid]
- % DC (Bulk PBMNC; Day 7): 5.00%
- TOTAL # OF DC (Bulk PBMNC; Day 7, projected in culture): 4.63E+05
- fold fewer DC (average total number projected in culture) than GM-CSF/IL-4 cultures (Bulk PBMNC; day 7): approximately 4 fold
- TOTAL CELLS (adherent PBMNC [1]; Day 4, with GM-CSF present): 1.41E + 05
- % VIABLE (adherent PBMNC [1]; Day 4, with GM-CSF present): 96.07%
- TOTAL CELLS (adherent PBMNC [1]; Day 4, without GM-CSF): 1.99E + 05
- % VIABLE (adherent PBMNC [1]; Day 4, without GM-CSF): 78.84%
- TOTAL CELLS (adherent PBMNC [1]; Day 7, with GM-CSF present): 7.85E + 05
- % VIABLE (adherent PBMNC [1]; Day 7, with GM-CSF present): 82.63%
- TOTAL CELLS (adherent PBMNC [1]; Day 7, without GM-CSF): 1.19E + 05
- % VIABLE (adherent PBMNC [1]; Day 7, without GM-CSF): 82.69%
- % DC (adherent PBMNC [2]; Day 4, with GM-CSF present): 8.00%
- % DC (adherent PBMNC [2]; Day 4, without GM-CSF): 3.00%
- % DC (adherent PBMNC [2]; Day 7, with GM-CSF present): 9.00%
- % DC (adherent PBMNC [2]; Day 7, without GM-CSF): 6.00%
- morphologically identified DC (adherent PBMNC [2]; day 7, without GM-CSF added to additives): next highest percentages
- Allogeneic MLR. Increase Over Background Proliferation (T cells; Day 7, Cell Culture:T cell Ratio 1:1): 6.1
- Allogeneic MLR. Increase Over Background Proliferation (T cells; Day 7, Cell Culture:T cell Ratio 1:10): 3.1
- Allogeneic MLR. Increase Over Background Proliferation (T cells; Day 7, Cell Culture:T cell Ratio 1:100): 1.1
